We go through three molecules from publication PMC10329651, “ATPase activity of DFCP1 controls selective autophagy” (Nature Communications, 2023).

The target of series [1] is T1, DFCP1-FL (Homo sapiens, UniProt Q9HBF4).
T1 construct: gene ZFYVE1; full length, His6-tagged, Sf9 baculovirus
T1 sequence (Q9HBF4 1-777): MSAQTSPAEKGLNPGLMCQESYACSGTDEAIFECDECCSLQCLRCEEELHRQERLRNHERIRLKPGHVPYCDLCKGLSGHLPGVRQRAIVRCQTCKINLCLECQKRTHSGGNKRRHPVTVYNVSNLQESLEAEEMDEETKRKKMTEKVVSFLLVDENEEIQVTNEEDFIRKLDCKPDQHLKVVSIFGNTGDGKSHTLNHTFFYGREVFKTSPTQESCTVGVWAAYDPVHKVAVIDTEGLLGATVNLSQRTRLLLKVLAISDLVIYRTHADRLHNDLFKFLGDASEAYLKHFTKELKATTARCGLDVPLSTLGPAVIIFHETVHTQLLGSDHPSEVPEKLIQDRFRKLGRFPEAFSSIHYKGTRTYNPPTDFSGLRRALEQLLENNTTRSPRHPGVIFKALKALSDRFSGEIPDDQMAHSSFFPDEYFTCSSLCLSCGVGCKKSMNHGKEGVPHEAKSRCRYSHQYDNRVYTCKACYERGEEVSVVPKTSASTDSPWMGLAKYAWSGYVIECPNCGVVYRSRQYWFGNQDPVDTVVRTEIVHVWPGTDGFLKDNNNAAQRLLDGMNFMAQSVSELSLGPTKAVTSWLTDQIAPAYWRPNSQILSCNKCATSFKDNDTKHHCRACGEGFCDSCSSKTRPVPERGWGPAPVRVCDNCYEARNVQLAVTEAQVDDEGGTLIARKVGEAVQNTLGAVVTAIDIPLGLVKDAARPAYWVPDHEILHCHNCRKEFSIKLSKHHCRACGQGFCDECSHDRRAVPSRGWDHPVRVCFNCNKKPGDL
Kind of series: malachite green phosphate release (Biomol Green). In kind it is biochemical. The settings on record: 0.5 mM ATP, 10 mM MgCl2, 10 µM ZnCl2, pH 7.5, 37 °C, 30 min; with and without liposomes.

Series [2] has as its target T2, DFCP1 WT (aa 1–410) (Homo sapiens, UniProt Q9HBF4).
T2 construct: gene ZFYVE1; N-terminal ATPase domain, aa 1-410, His6-MBP fusion (pET-His6-MBP-TEV-LIC, E. coli Rosetta2(DE3))
T2 sequence (Q9HBF4 1-410): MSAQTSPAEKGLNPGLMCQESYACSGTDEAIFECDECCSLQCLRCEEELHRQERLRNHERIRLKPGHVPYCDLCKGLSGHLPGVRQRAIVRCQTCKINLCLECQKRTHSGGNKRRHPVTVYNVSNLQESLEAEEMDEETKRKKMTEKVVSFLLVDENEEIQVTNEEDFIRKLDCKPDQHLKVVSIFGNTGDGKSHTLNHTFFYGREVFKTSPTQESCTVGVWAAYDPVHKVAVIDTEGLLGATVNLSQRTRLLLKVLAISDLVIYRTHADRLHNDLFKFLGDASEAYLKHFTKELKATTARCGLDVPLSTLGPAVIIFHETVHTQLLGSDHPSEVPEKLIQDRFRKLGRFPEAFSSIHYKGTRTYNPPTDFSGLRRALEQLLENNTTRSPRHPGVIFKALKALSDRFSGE
Kind of series: size exclusion chromatography, nucleotide-dependent dimerization. In kind it is binding. The settings on record: 400 µM nucleotide, 50 mM MgCl2; non-hydrolysable ATP analogue.

Series [3] concerns the molecule itself. Kind of series: SEC; protein loaded with 400 µM ATPγS for 20 min at RT in exchange buffer (50 mM Tris, 150 mM NaCl, 50 mM MgCl2, 10% glycerol, 1 mM TCEP); Superdex 200 Increase 10/300 GL, isocratic elution at 4 °C, 0.25 ml/min; molecular weights relative to a Bio-Rad gel filtration standard.

Regarding `Nc1ncnc2c1ncn2[C@@H]1O[C@H](COP(=O)(O)OP(=O)(O)OP(=O)(O)O)[C@@H](O)[C@H]1O` [ATP], the “malachite green phosphate release (Biomol Green)” value in series [1] is “Addition of liposomes to purified full-length DFCP1 resulted in a modest, but significant increase”.

With `Nc1ncnc2c1ncn2[C@@H]1O[C@H](COP(=O)(O)OP(=O)(O)OP(O)(O)=S)[C@@H](O)[C@H]1O` [ATPγS], the “size exclusion chromatography, nucleotide-dependent dimerization” value in series [2] is listed as “ADP-bound DFCP1 migrated as a monomer, ATPγS-loaded DFCP1 migrated as dimer”.

B1: His6-MBP-DFCP1 WT (aa 1-410) (domain or fragment, UniProt Q9HBF4 1-410, looked up)
chain: T2 sequence (Q9HBF4 1-410)
notes: Loaded with ADP or ATPγS before size exclusion chromatography; dimer with ATPγS, monomer with ADP; The vector has a TEV site, but no cleavage is described; also called DFCP1 N-terminus; DFCP1 ATPase domain; not shown: His6, N-terminal, kept; MBP, N-terminal, kept
As to B1, the “stoichiometry N” value in series [3] was determined as 2.

The term stoichiometry N denotes a count of units in the complex or per binding partner.
